Assays:
Test in all cases: CYP inhibition, cocktail-substrate method in HLM
Type in all cases: in vitro ADME
CYP 2A6 = target: T1, CYP 2A6 (Homo sapiens, UniProt P11509); settings: probe coumarin
T1 construct: 0.5 mg/mL HLM, 1 mmol/L NADPH, and a cocktail of 10 probe substrates for 9 CYP isoforms; tissue BD (Woburn, USA); host or cells: pooled human liver microsomes
T1 sequence (P11509 1-494): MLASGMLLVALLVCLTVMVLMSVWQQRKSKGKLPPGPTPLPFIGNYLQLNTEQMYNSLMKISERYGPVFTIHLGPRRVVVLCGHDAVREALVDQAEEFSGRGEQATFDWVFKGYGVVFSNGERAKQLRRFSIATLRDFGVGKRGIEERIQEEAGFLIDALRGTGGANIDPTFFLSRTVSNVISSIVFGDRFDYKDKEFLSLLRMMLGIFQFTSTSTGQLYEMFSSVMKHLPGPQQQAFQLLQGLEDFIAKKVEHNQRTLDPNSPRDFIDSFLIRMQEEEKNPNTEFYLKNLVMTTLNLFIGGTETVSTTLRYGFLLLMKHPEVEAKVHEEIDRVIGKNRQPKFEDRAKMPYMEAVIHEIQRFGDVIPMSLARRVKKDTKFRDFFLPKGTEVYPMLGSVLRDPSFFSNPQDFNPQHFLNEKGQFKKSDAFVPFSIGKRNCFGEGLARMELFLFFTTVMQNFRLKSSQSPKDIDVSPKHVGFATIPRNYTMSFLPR
Procedure: (§1) To assess the CYP inhibition profiling of ammoxetine, a high-throughput assay based on the cocktail-substrate method was performed, as described in the literature ([Kim et al., 2005]; [Kozakai et al., 2014]). Microsomal incubations were conducted in triplicate for 30 min at 37°C in a reaction system (200 μL) consisting of […] potassium phosphate buffer (pH 7.4), 0.5 mg/mL HLM, 1 mmol/L NADPH, and a cocktail of 10 probe substrates for 9 CYP isoforms. The final concentration of each CYP-specific substrate was chosen to be close to the Michaelis-Menten constant (K m ) value of the respective substrate ([Kim et al., 2005]; [Lee et al., 2024]). For instance, phenacetin (CYP 1A2) was used at a concentration of 50 μmol/L, coumarin (CYP 2A6) at 5 μmol/L, bupropion (CYP 2B6) at 50 μmol/L, amodiaquine (CYP 2C8) at 5 μmol/L, tolbutamide (CYP 2C9) at 100 μmol/L, S-mephenytoin (CYP 2C19) at 100 μmol/L, dextromethorphan (CYP 2D6) at 5 μmol/L, chlorzoxazone (CYP 2E1) at 50 μmol/L, and testosterone and midazolam (CYP 3A4) at 50 μmol/L. Ammoxetine was evaluated at five concentrations: 0.1, 1, 10, 50, and 100 μmol/L. Additionally, a blank control without ammoxetine was included. The incubation was terminated by adding an equal volume of ice-cold acetonitrile/methanol (1:1, v/v) along with the IS, dexmedetomidine (1 ng/mL). After a 20-fold dilution, the mixture was centrifuged at 13,800×g for 10 min at 4°C. The supernatants were used to measure the levels of metabolites from the respective probe substrates using an LC-MS-MS method. The half-maximal inhibitory concentration (IC50) values were subsequently calculated.

CYP 2C8 = target: T2, CYP 2C8 (Homo sapiens, UniProt P10632); settings: probe amodiaquine
T2 construct: 0.5 mg/mL HLM, 1 mmol/L NADPH, and a cocktail of 10 probe substrates for 9 CYP isoforms; tissue BD (Woburn, USA); host or cells: pooled human liver microsomes
T2 sequence (P10632 1-490): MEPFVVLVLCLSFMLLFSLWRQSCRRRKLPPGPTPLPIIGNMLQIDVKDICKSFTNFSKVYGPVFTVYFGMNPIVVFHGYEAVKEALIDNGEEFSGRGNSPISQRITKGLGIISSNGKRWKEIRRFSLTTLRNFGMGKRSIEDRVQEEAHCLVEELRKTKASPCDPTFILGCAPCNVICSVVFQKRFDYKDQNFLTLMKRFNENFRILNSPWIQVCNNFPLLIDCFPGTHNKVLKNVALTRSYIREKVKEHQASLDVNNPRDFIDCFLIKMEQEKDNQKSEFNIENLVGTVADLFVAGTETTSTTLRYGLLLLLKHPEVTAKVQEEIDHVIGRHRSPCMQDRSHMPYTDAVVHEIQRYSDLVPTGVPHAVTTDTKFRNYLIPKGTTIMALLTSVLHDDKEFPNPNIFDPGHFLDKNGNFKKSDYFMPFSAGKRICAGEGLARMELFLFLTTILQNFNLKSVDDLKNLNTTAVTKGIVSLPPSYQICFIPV
Procedure: as §1

CYP 2E1 = target: T3, CYP 2E1 (Homo sapiens, UniProt P05181); settings: probe chlorzoxazone
T3 construct: 0.5 mg/mL HLM, 1 mmol/L NADPH, and a cocktail of 10 probe substrates for 9 CYP isoforms; tissue BD (Woburn, USA); host or cells: pooled human liver microsomes
T3 sequence (P05181 whole entry, canonical isoform): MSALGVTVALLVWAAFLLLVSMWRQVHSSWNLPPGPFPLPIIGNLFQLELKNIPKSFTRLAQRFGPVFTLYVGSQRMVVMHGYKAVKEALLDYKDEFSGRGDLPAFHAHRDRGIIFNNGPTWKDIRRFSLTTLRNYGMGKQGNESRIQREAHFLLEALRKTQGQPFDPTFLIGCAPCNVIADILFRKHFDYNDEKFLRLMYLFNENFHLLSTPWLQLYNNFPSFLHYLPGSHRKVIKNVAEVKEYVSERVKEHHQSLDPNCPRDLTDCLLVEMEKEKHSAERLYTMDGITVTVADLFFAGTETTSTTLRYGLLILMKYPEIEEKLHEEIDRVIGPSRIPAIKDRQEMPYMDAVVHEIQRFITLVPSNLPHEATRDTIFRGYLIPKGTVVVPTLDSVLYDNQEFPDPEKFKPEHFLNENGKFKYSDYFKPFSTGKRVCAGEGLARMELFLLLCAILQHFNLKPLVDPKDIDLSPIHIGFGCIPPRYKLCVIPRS
Procedure: as §1

CYP 2B6 = target: T4, CYP 2B6 (Homo sapiens, UniProt P20813); settings: probe bupropion
T4 construct: 0.5 mg/mL HLM, 1 mmol/L NADPH, and a cocktail of 10 probe substrates for 9 CYP isoforms; tissue BD (Woburn, USA); host or cells: pooled human liver microsomes
T4 sequence (P20813 1-491): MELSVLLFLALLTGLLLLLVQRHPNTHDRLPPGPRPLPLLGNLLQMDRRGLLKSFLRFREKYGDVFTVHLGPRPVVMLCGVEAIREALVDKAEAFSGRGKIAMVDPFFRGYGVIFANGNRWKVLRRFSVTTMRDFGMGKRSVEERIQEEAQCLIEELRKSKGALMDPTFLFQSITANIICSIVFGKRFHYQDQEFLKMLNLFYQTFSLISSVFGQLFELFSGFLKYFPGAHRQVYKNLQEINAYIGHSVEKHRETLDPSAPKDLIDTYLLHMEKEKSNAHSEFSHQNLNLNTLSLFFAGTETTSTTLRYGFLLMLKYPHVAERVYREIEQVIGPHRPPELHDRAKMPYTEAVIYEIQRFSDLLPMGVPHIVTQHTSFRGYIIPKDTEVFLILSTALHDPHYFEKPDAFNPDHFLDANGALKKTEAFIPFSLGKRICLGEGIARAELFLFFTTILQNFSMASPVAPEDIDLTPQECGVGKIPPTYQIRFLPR
Procedure: as §1

IC50 (CYP 2A6): > 100 µM
IC50 (CYP 2C8): > 100 µM
IC50 (CYP 2E1): > 100 µM
IC50 (CYP 2B6): > 100 µM
Structure (SMILES): CNCC[C@H](Oc1cccc2c1OCO2)c1cccs1 [ammoxetine]

From publication PMC11579541, “In vitro, in vivo, and in silico approaches for evaluating the preclinical DMPK profiles of ammoxetine, a novel chiral serotonin and norepinephrine reuptake inhibitor” (Frontiers in Pharmacology, 2024)
